Results: US20190382320A1, “ENHANCED STABILITY OF UREASE INHIBITOR-CONTAINING COMPOSITIONS” (Koch Agronomic Services, LLC, priority 2017, published 2019)

Columns and labels:
[1] = Hydrolysis of NBPT adduct-containing compositions at varying pH (OPPTS 835.2120), LC-MS monitoring; assay type: physicochemical; conditions: pH=4, 50° C.
Experimental: NBPT adduct-containing compositions were prepared by a method similar to that described in Example 1, with the exception that acetonitrile, rather than N-methylpyrrolidone was used as the solvent and, after <20 wt. % of free NBPT remained (based on UPLC testing), the acetonitrile was evaporated. As such, the NBPT in the “adduct-containing composition” subjected to hydrolysis according to the method of Example 2 is initially partially in adduct form and partially in free form (i.e., the composition includes both NBPT-containing adduct and free NBPT).
The NBPT adduct-containing compositions were hydrolyzed in accordance with OPPTS 835.2120 guidelines (https://www.regulations.gov/document?D=EPA-HQ-OPPT-2009-0152-0009), which are incorporated herein by reference. Specifically, samples comprising the NBPT adducts were subjected to various pH conditions (pH=4, pH=7, and pH=9) to evaluate the hydrolysis profiles at these varying pH values at 50° C. for 5 days. Hydrolysis of the NBPT adduct-containing compositions (by evaluating total NBPT adduct concentration as well as free NBPT concentration (i.e., NBPT in non-adduct form)) was monitored at hourly-to-daily intervals by liquid chromatography-mass spectroscopy (LC-MS), with secondary detection via ultraviolet (UV) detection at 200 nm. […]

[2] = NBPT hydrolysis over time in acetonitrile; assay type: physicochemical; conditions: in acetonitrile (no hydrolysis conditions)
Description: FIGS. 4A and 4B present data on a study of NBPT hydrolysis over time in acetonitrile. As shown, little change is observed over the course of the study.

Which results are given for `CCCCNP(N)(N)=S` [free NBPT, N-(n-butyl) thiophosphoric triamide]?
amount of free NBPT in the composition ([1]; day 3): minimal; amount of free NBPT in the composition ([1]; day 4): completely gone; change of overall amount over the course of the study [2]: not actively degraded
